We go through twelve substances from US20230399661A1, “SHUTTLE AGENT PEPTIDES OF MINIMAL LENGTH AND VARIANTS THEREOF ADAPTED FOR TRANSDUCTION OF CAS9-RNP AND OTHER NUCLEOPROTEIN CARGOS” (priority 2020, published 2023).

This test has as its system HeLa cells. The test can be described thus: GFP-NLS transduction in the presence or absence of Cas9-RNP complex, flow cytometry. Type of test: cell-based, Human. Further details: GFP transduction efficiency: concentration or dose not given beside the values. To be noted: for resistance/sensitivity of GFP transduction to inhibition by Cas9-RNP: presence vs absence of Cas9-RNP. How it is done:
HeLa cells were plated (20 000 cells/well) in a 96 well-plate the day prior to the experiment in DMEM containing 10% FBS. A mix was prepared containing a synthetic peptide shuttle agent (10-30 μM), the GFP-NLS (10 μM) with or without a Cas9-NLS recombinant protein (2.5 μM) complexed with a crRNA/tracrRNA (2 μM) targeting the beta-2 microglobulin (B2M) gene and completed to 50 μL with PBS. Cells were washed once with PBS and the shuttle/GFP-NLS/Cas9-RNP mix was added to the cells and incubated for one minute. Then 100 μL DMEM containing 10% FBS was added to the mix. Cells were then immediately washed once with PBS and incubated in DMEM containing 10% FBS for two hours. Cells were the analyzed by flow cytometry.
To better understand the inhibitory effect of Cas9-RNP on shuttle agent transduction activity, HeLa cells were incubated with different peptides/shuttle agents and GFP cargo, in the presence or absence of Cas9-RNP, and delivery of GFP was assessed by flow cytometry, as described in Example 1. […] For some shuttle agents, the effect was particularly striking. For example, the GFP transduction efficiency for FSD268 decreased from 92% to 29%, the GFP transduction efficiency for FSD250 decreased from 83% to 13%, the GFP transduction efficiency for FSD10 decreased from 76% to 22%, and the GFP transduction efficiency for FSD395 decreased from 91% to 17%. […] Structure-activity relationships were explored further by repeating the above transduction experiments with shuttle agent variants sharing the same “core” amphipathic cationic alpha helical region as FSD10-15 (FIG. 4A), CM18 (FIG. 4B), and FSD356 (FIG. 4C).
In general terms: In flow cytometry, cells or beads pass a laser one at a time.

With “CM18-L2-PTD4: CM18-based shuttle agent with lower C-terminal positive charge density (KWKLFKKIGAVLKVLTTGGGSGGGSYARAAARQARA; CM18-L2-PTD4)”, the “resistance/sensitivity of GFP transduction to inhibition by Cas9-RNP” value is reported as “substantially more resistant to inhibition by Cas9-RNP”.
Take “CM18-TAT: CM18-based shuttle agent having high C-terminal positive charge density (KWKLFKKIGAVLKVLTTGYGRKKRRQRRR; CM18-TAT)”: the “resistance/sensitivity of GFP transduction to inhibition by Cas9-RNP” value was “particularly marked sensitivities to inhibition by Cas9-RNP”.
Consider “FSD10-15: 15-amino acid fragment of several longer shuttle agents, including FSD375, FSD10 and FSD210 (KWKLARAFARAIKKL; FSD10-15)”, for which the “resistance/sensitivity of GFP transduction to inhibition by Cas9-RNP” value was “more resistant”. The GFP transduction efficiency (absence of Cas9-RNP) amounted to 21%. Also, under “presence of Cas9-RNP”, the GFP transduction efficiency was 24%.
For “FSD174: synthetic peptide shuttle agent having higher C-terminal positive charge density (LLKIWSRLIKIWTQGRRLGGSGGGSARAARQAR; FSD174)”, the “resistance/sensitivity of GFP transduction to inhibition by Cas9-RNP” value is reported as “particularly sensitive to the inhibitory effect of Cas9-RNP”. The GFP transduction efficiency (absence of Cas9-RNP) was 66%. For the same substance, the GFP transduction efficiency (presence of Cas9-RNP) is given as 11%. Also, the “resistance/sensitivity of GFP transduction to inhibition by Cas9-RNP” value (listed as FSD 174) is on record as “generally more sensitive to Cas9-RNP inhibition”.
With “FSD187: shuttle agent variant sharing the same core region as FSD174; higher C-terminal positive charge density (LLKIWSRLIKIWTQGRRLGARKPRKSRQ; FSD187)”, the “resistance/sensitivity of GFP transduction to inhibition by Cas9-RNP” value was “generally more sensitive to Cas9-RNP inhibition”.
Still for that read-out and setting: with “FSD189: shuttle agent variant sharing the same core region as FSD174; higher C-terminal positive charge density (LLKIWSRLIKIWTQGRRLGRAQRAQRA; FSD189)” the entry was “generally more sensitive to Cas9-RNP inhibition”; with “FSD210: shuttle agent: FSD10-15 core, C-terminal glycine/serine-rich linker fused to a second cationic domain (KWKLARAFARAIKKLGGSGGGSRRLKAKRAKA; FSD210)”, “more sensitive to inhibition by Cas9-RNP”; with “FSD241: shuttle agent: FSD10-15 core, C-terminal glycine/serine-rich linker fused to a second cationic domain (KWKLARAFARAIKKLGGSGGGSYARAAARQARA; FSD241)”, “more sensitive to inhibition by Cas9-RNP”.
Still for that read-out and setting: with “FSD246: shuttle agent with N-terminal segment identical to FSD356; increased C-terminal positive charge density (KWKLLKLWSRLLKLWGGSGGGSYARAAARKAKRA; FSD246)” the entry was “increased shuttle agent sensitivity to inhibition by Cas9-RNP”; with “FSD251: shuttle agent containing three negatively-charged glutamate (E) residues in the peptide's C-terminal region (KWKLLKLWSRLLKLWGGSGGGSAEAAEQAE; FSD251)”, “least sensitivity to Cas9-RNP inhibition”.
With “FSD268: synthetic peptide shuttle agent (KWKLLKLWSRLLKLWGGSGGGSQARAQARQAR; FSD268)”, the GFP transduction efficiency runs as follows: (absence of Cas9-RNP) 92%; (presence of Cas9-RNP) 29%.
On to “FSD296: shuttle agent with N-terminal segment identical to FSD356; polar residues (e.g., Q) between the C-terminal positively-charged residues (KWKLLKLWSRLLKLWQQGGSGGGSQARAQARQAR; FSD296)”, for which the “resistance/sensitivity of GFP transduction to inhibition by Cas9-RNP” value is recorded as “increased shuttle agent sensitivity to inhibition by Cas9-RNP”.
